The source of these data is article PMC6009943, “One-pot three-component synthesis of novel spirooxindoles with potential cytotoxic activity against triple-negative breast cancer MDA-MB-231 cells” (Journal of Enzyme Inhibition and Medicinal Chemistry, 2017).

The subject of one series is MDA-MB-231 cells. Nature of the series: In vitro anti-proliferative activity assay (MTT). It counts as cell-based. The settings on record: Homo sapiens, 48 h incubation. As to the method:
Cells lines were maintained as monolayers in Dulbecco’s Modified Eagle’s Medium (DMEM) supplemented with 10% FBS, 2 mM L-glutamine, 100 U/ml penicillin and 100 µg/ml streptomycin sulfate. Cells were sub-cultured with trypsine/EDTA solution, counted with haemocytometer and plated onto 96-well plates (5000 cells/well) and left overnight to form a semi-confluent monolayer. […] DMSO (100 µl/well) was added to dissolve the formazan crystals with shaking for 10 min after which the absorbance was read at 590 nm against no cell blanks on a FLuo Star Optima microplate reader (BMG Technologies, Germany). Cell proliferation was calculated comparing the OD values of the DMSO control wells and those of the samples represented as % proliferation to the control.
The in vitro anti-proliferative activity of the newly synthesized spirooxindoles 6a–p was examined against TNBC MDA-MB-231 cells. This assay was performed utilizing the 3–(4,5-dimethylthiazol-2-yl)-2,5-diphenyltetrazolium bromide (MTT) colorimetric assay as described by Mosmann[18]. Adriamycin was included in this assay as a reference drug.

For a further series, the system named is WI-38 cells. Description: In vitro cytotoxic activity, WI-38 cells (MTT). The settings on record: for IC50: WI-38, MTT assay, human normal lung fibroblast cell line, read-out: IC50 (µM) WI-38; for Selectivity Index: WI-38 versus MDA-MB-231. It counts as cell-based, human. On the procedure:
WI-38 cells ([…]), were obtained from American Type Culture Collection. The cells were propagated in DMEM supplemented with 10% heat-inactivated FBS (Hyclone), 10 μg/ml of insulin (Sigma), and 1% penicillin-streptomycin. All of the other chemicals and reagents were from Sigma, or Invitrogen. Cytotoxicity was determined using MTT assay following a reported procedure.
On the technique in general: Formazan colour is commonly taken as a measure of viable cells.

The test system of a further series is caspase-3. Description: Active caspase-3 level in MDA-MB-231 cells (ELISA). The format is cell-based. The settings on record: MDA-MB-231 cells treated with compound at its IC50 concentration. As to the method:
(§1) The levels of the apoptotic markers (Bax, caspase-3) as well as the anti-apoptotic marker (Bcl-2) were assessed using ELISA colorimetric kits per the manufacturer’s protocol and referring to reported instructions[21]^,[22].
Caspases, a family of cysteineaspartic proteases, are the crucial apoptosis mediators that provide essential links in cell regulatory networks controlling cell death. Caspase-3 is the key executioner caspase which modifies proteins ultimately responsible for apoptosis.
In general terms: An ELISA detects its analyte on a solid surface through an enzyme-linked reagent.

Another series has as its system Bax. Nature of the series: Bax level in MDA-MB-231 cells (ELISA). The settings on record: MDA-MB-231 cells treated with compound at its IC50 concentration. It counts as cell-based. On the procedure: as §1
(§2) Bcl-2 family comprises a group of crucial regulatory factors in apoptosis that finely tune the apoptotic switch on/off mechanism. Based on their functional and structural criteria, the members are divided into two major classes; group I proteins that are anti-apoptotic and group II proteins that are apoptotic. Group I anti-apoptotic proteins exert their function by inhibiting group II apoptotic proteins through simply binding to them. Group I proteins bind selectively to the active conformations of group II proteins to prevent them from being inserted into the mitochondria and thus cease the release of pro-apoptotic factors such as cytochrome c, ultimately aborting apoptosis. Thus, the inhibition of group I proteins and/or the activation of group II proteins can successfully induce apoptosis.

In a further series the test system is Bcl-2. Description: Bcl-2 level in MDA-MB-231 cells (ELISA). It counts as cell-based. To be noted: MDA-MB-231 cells treated with compound at its IC50 concentration. On the procedure:
as §1, §2

The next series concerns the target T1, EGFR (Homo sapiens, UniProt P00533).
T1 construct: purchased BPS Biosciences 40321
Description: EGFR kinase ELISA assay. The format is biochemical. The settings on record: colorimetric ELISA, mean ± SD of three separate experiments. On the procedure: Percent inhibition was calculated by the comparison of compounds treated to control incubations.
Erlotinib, a clinically used EGFR inhibitor, was taken as the reference drug.

Series [1] has as its system MDA-MB-231 cancer cell line. The settings on record: cited from earlier work.

The structures appear in SMILES notation. Where two headings read alike, the source gives them in different places. Where only a bound is given, the exact number is not on record here.

As a reminder, the IC50 is the concentration needed to halve the response being measured. One may read the melting point as the temperature, or range, at which the solid turns liquid.

T1 sequence (P00533 25-1210): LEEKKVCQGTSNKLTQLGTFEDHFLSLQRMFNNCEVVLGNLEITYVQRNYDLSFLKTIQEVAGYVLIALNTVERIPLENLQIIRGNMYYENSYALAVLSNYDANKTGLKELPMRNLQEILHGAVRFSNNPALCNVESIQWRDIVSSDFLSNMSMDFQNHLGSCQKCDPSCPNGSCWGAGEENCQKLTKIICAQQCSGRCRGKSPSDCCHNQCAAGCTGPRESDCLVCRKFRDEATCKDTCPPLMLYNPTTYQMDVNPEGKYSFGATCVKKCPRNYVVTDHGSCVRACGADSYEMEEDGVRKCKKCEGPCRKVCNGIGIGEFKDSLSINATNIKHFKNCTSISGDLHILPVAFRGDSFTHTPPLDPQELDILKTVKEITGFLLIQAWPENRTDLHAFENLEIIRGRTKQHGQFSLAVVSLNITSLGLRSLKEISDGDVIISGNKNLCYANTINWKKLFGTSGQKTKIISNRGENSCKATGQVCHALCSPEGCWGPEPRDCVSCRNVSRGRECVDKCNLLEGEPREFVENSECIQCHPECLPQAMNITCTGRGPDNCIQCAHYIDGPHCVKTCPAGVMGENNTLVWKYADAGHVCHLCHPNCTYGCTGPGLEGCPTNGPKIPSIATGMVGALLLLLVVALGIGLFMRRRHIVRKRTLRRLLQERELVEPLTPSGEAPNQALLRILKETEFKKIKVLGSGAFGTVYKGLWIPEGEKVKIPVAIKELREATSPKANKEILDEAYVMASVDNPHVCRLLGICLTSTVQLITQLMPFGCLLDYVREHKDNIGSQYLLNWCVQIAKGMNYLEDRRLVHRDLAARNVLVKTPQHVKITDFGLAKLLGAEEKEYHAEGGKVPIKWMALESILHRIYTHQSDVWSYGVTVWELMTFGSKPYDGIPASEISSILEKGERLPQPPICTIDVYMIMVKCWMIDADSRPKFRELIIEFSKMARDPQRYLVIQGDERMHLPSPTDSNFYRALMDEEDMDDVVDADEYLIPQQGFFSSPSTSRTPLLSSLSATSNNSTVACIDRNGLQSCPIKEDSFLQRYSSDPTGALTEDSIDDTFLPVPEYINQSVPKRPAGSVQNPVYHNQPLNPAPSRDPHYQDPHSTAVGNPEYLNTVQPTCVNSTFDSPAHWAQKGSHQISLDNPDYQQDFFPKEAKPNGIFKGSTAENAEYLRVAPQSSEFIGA

Compound `COc1cccc2c1C(=O)c1c(O)c3c(c(O)c1C2=O)C[C@@](O)(C(=O)CO)C[C@@H]3O[C@H]1C[C@H](N)[C@H](O)[C@H](C)O1` [Adriamycin, reference compound] registered an IC50 in the series with MDA-MB-231 cells of 0.12 µM.

In turn, `N#CC1=C(c2ccccc2)Nc2c(c(-c3cccs3)nn2-c2ccccc2)C12C(=O)Nc1ccccc12` (stereo not shown) [Compound 6a, 2-Oxo-1',6'-diphenyl-3'-(thiophen-2-yl)-1',7'-dihydrospiro[indoline-3,4'-pyrazolo[3,4-b]pyridine]-5'-carbonitrile] had an IC50 with MDA-MB-231 cells of 6.7 µM. In the series with WI-38 cells, the IC50 was 78.1 µM and the “Selectivity Index” value came to 11.7. The “Caspase-3” value with caspase-3 came out at 0.3501 ng/mL. In the series with Bax, the “Bax” value stood at 405.5 pg/mL and the “Bax, number of folds of control” value turned out to be 506.8 folds. For the same compound, in the series on Bcl-2, the “Bcl-2” value amounted to 0.3958 ng/mL; the “Bcl-2, number of folds of control” value is recorded as 0.147 folds; the “Bcl-2 expression compared to basal level in the control” value worked out at 14.7%. The compound also displayed an IC50 on EGFR of 0.43 ± 0.04 µM.

On to `Cc1ccc(C2=C(C#N)C3(C(=O)Nc4ccccc43)c3c(-c4cccs4)nn(-c4ccccc4)c3N2)cc1` (stereo not shown) [Compound 6b, 2-Oxo-1'-phenyl-3'-(thiophen-2-yl)-6'-(p-tolyl)-1',7'-dihydrospiro[indoline-3,4'-pyrazolo[3,4-b]pyridine]-5'-carbonitrile], for which the melting point was 285 to 287 °C. Moreover, the IC50 in the series with MDA-MB-231 cells came to 29.7 µM.

`COc1ccc(C2=C(C#N)C3(C(=O)Nc4ccccc43)c3c(-c4cccs4)nn(-c4ccccc4)c3N2)cc1` (stereo not shown) [Compound 6c, 6'-(4-Methoxyphenyl)-2-oxo-1'-phenyl-3'-(thiophen-2-yl)-1',7'-dihydrospiro[indoline-3,4'-pyrazolo[3,4-b]pyridine]-5'-carbonitrile] gave a melting point of 296 to 298 °C. This compound gave an IC50 with MDA-MB-231 cells of 37.8 µM.

`N#CC1=C(c2ccc(Cl)cc2)Nc2c(c(-c3cccs3)nn2-c2ccccc2)C12C(=O)Nc1ccccc12` (stereo not shown) [Compound 6d, 6'-(4-Chlorophenyl)-2-oxo-1'-phenyl-3'-(thiophen-2-yl)-1',7'-dihydrospiro[indoline-3,4'-pyrazolo[3,4-b]pyridine]-5'-carbonitrile] returned a melting point of 279 to 281 °C. In addition, 12 µM corresponded to half-maximal inhibition in the series with MDA-MB-231 cells (IC50). Further, the IC50 at EGFR turned out to be 0.36 ± 0.02 µM.

Take `Cc1ccc(C2=C(C#N)C3(C(=O)Nc4ccc(Cl)cc43)c3c(-c4cccs4)nn(-c4ccccc4)c3N2)cc1` (stereo not shown) [Compound 6f, 5-Chloro-2-oxo-1'-phenyl-3'-(thiophen-2-yl)-6'-(p-tolyl)-1',7'-dihydrospiro[indoline-3,4'-pyrazolo[3,4-b]pyridine]-5'-carbonitrile]: the melting point is 286 to 288 °C. In addition, in the series with MDA-MB-231 cells, 18.2 µM corresponded to half-maximal inhibition (IC50).

As for `COc1ccc(C2=C(C#N)C3(C(=O)Nc4ccc(Cl)cc43)c3c(-c4cccs4)nn(-c4ccccc4)c3N2)cc1` (stereo not shown) [Compound 6g, 5-Chloro-6'-(4-methoxyphenyl)-2-oxo-1'-phenyl-3'-(thiophen-2-yl)-1',7'-dihydrospiro[indoline-3,4'-pyrazolo[3,4-b]pyridine]-5'-carbonitrile], the melting point was over 300 °C. This compound also yielded an IC50 in the series with MDA-MB-231 cells of 24.1 µM.

Turning to `N#CC1=C(c2ccc(Cl)cc2)Nc2c(c(-c3cccs3)nn2-c2ccccc2)C12C(=O)Nc1ccc(Cl)cc12` (stereo not shown) [Compound 6h, 5-Chloro-6'-(4-chlorophenyl)-2-oxo-1'-phenyl-3'-(thiophen-2-yl)-1',7'-dihydrospiro[indoline-3,4'-pyrazolo[3,4-b]pyridine]-5'-carbonitrile], the melting point is 281 to 283 °C. In the series on MDA-MB-231 cells, this compound displayed an IC50 of 16.6 µM.

Consider `N#CC1=C(c2ccccc2)Nc2c(c(-c3cccs3)nn2-c2ccccc2)C12C(=O)Nc1ccc(Br)cc12` (stereo not shown) [Compound 6i, 5-Bromo-2-oxo-1',6'-diphenyl-3'-(thiophen-2-yl)-1',7'-dihydrospiro[indoline-3,4'-pyrazolo[3,4-b]pyridine]-5'-carbonitrile], for which the results for the IC50 in the series on MDA-MB-231 cells, in the series with WI-38 cells and on EGFR were 6.7 µM, 39.3 µM and 0.12 ± 0.01 µM, respectively. Also, the “Selectivity Index” value in the series with WI-38 cells stood at 5.9.

`Cc1ccc(C2=C(C#N)C3(C(=O)Nc4ccc(Br)cc43)c3c(-c4cccs4)nn(-c4ccccc4)c3N2)cc1` (stereo not shown) [Compound 6j, 5-Bromo-2-oxo-1'-phenyl-3'-(thiophen-2-yl)-6'-(p-tolyl)-1',7'-dihydrospiro[indoline-3,4'-pyrazolo[3,4-b]pyridine]-5'-carbonitrile] displayed a melting point of 282 to 284 °C. In the series with MDA-MB-231 cells, this compound showed an IC50 of 13.5 µM. The same compound had an IC50 against EGFR of 0.51 ± 0.04 µM.

`COc1ccc(C2=C(C#N)C3(C(=O)Nc4ccc(Br)cc43)c3c(-c4cccs4)nn(-c4ccccc4)c3N2)cc1` (stereo not shown) [Compound 6k, 5-Bromo-6'-(4-methoxyphenyl)-2-oxo-1'-phenyl-3'-(thiophen-2-yl)-1',7'-dihydrospiro[indoline-3,4'-pyrazolo[3,4-b]pyridine]-5'-carbonitrile] registered a melting point of over 300 °C. The IC50 with MDA-MB-231 cells is 12.7 µM. The same compound registered an IC50 against EGFR of 0.31 ± 0.02 µM.

As to `N#CC1=C(c2ccc(Cl)cc2)Nc2c(c(-c3cccs3)nn2-c2ccccc2)C12C(=O)Nc1ccc(Br)cc12` (stereo not shown) [Compound 6l, 5-Bromo-6'-(4-chlorophenyl)-2-oxo-1'-phenyl-3'-(thiophen-2-yl)-1',7'-dihydrospiro[indoline-3,4'-pyrazolo[3,4-b]pyridine]-5'-carbonitrile], the melting point was in the range of 293 to 294 °C. The compound further showed an IC50 in the series on MDA-MB-231 cells of 30.6 µM.

In turn, `COc1ccc2c(c1)C1(C(=O)N2)C(C#N)=C(c2ccccc2)Nc2c1c(-c1cccs1)nn2-c1ccccc1` (stereo not shown) [Compound 6m, 5-Methoxy-2-oxo-1',6'-diphenyl-3'-(thiophen-2-yl)-1',7'-dihydrospiro[indoline-3,4'-pyrazolo[3,4-b]pyridine]-5'-carbonitrile] yielded a melting point of 276 to 278 °C. Besides, half-maximal inhibition in the series with MDA-MB-231 cells (IC50) required 17.5 µM.

Compound `COc1ccc2c(c1)C1(C(=O)N2)C(C#N)=C(c2ccc(C)cc2)Nc2c1c(-c1cccs1)nn2-c1ccccc1` (stereo not shown) [Compound 6n, 5-Methoxy-2-oxo-1'-phenyl-3'-(thiophen-2-yl)-6'-(p-tolyl)-1',7'-dihydrospiro[indoline-3,4'-pyrazolo[3,4-b]pyridine]-5'-carbonitrile] registered a melting point of 268 to 269 °C. The compound also yielded an IC50 in the series on MDA-MB-231 cells of over 50 µM.

Compound `COc1ccc(C2=C(C#N)C3(C(=O)Nc4ccc(OC)cc43)c3c(-c4cccs4)nn(-c4ccccc4)c3N2)cc1` (stereo not shown) [Compound 6o, 5-Methoxy-6'-(4-methoxyphenyl)-2-oxo-1'-phenyl-3'-(thiophen-2-yl)-1',7'-dihydrospiro[indoline-3,4'-pyrazolo[3,4-b]pyridine]-5'-carbonitrile] yielded a melting point of 279 to 281 °C. In the series with MDA-MB-231 cells, the IC50 is over 50 µM.

For the compound `COc1ccc2c(c1)C1(C(=O)N2)C(C#N)=C(c2ccc(Cl)cc2)Nc2c1c(-c1cccs1)nn2-c1ccccc1` (stereo not shown) [Compound 6p, 6'-(4-Chlorophenyl)-5-methoxy-2-oxo-1'-phenyl-3'-(thiophen-2-yl)-1',7'-dihydrospiro[indoline-3,4'-pyrazolo[3,4-b]pyridine]-5'-carbonitrile], the melting point was 255 to 257 °C. Besides, the IC50 with MDA-MB-231 cells was over 50 µM.

For the compound `CC(C)OC(=O)C1=C(N)OC2=C(C(=O)OC2)C12C(=O)Nc1ccc(Cl)cc12` (stereo not shown) [compound (i)], in series [1] (read-out: IC50, cytotoxic activity against MDA-MB-231), the IC50 was 11 µM.

Consider `O=C(c1ccc(OCCN2CCCC2)cc1)C1C(c2ccccc2)C2CSC(c3ccccc3)N2C12C(=O)Nc1ccc(Cl)cc12` (stereo not shown) [compound (iv)], for which the IC50 in series [1] (reported compound of Figure 1, reference not given, read-out: IC50, cytotoxicity against MDA-MB-231) was 4.2 µM.
